Source: ChEMBL document CHEMBL1201862, “PubChem BioAssay data set” (2004)
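Protocol summary: plate cells (96-well), add compound at 5 concentrations, incubate 48 h, interpolate endpoints linearly. GI50: concentration for 50% inhibition of growth.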 The source made the active and inactive calls. Rule as the data show it: active = GI50 up to about 1.1 µM and inactive = higher.

How the values were obtained:
Test in all cases: NCI anticancer screen, dose series, 48 h
786-0 = system: 786-0
BT-549 = system: BT-549
CCRF-CEM = system: CCRF-CEM
COLO 205 = system: COLO 205
EKVX = system: EKVX
HOP-62 = system: HOP-62
HT-29 = system: HT-29
KM12 = system: KM12
LOX IMVI = system: LOX IMVI
MDA-MB-435 = system: MDA-MB-435
MOLT-4 = system: MOLT-4
NCI-H23 = system: NCI-H23
NCI/ADR-RES = system: NCI/ADR-RES
OVCAR-3 = system: OVCAR-3
OVCAR-5 = system: OVCAR-5
OVCAR-8 = system: OVCAR-8
RXF 393 = system: RXF 393
SR = system: SR
T47D = system: T47D
UACC-62 = system: UACC-62

Compound | GI50 (786-0) | GI50 (BT-549) | GI50 (CCRF-CEM) | GI50 (COLO 205) | GI50 (EKVX) | GI50 (HOP-62) | GI50 (HT-29) | GI50 (KM12) | GI50 (LOX IMVI) | GI50 (MDA-MB-435) | GI50 (MOLT-4) | GI50 (NCI-H23) | GI50 (NCI/ADR-RES) | GI50 (OVCAR-3) | GI50 (OVCAR-5) | GI50 (OVCAR-8) | GI50 (RXF 393) | GI50 (SR) | GI50 (T47D) | GI50 (UACC-62)
CC(C)OP(=O)(OC(C)C)C(C(F)(F)F)C(F)(F)F | > 100 µM (inactive) | > 100 µM (inactive) | > 100 µM (inactive) | > 100 µM (inactive) | > 100 µM (inactive) | > 100 µM (inactive) | > 100 µM (inactive) | > 100 µM (inactive) | > 100 µM (inactive) | > 100 µM (inactive) | > 100 µM (inactive) | > 100 µM (inactive) | > 100 µM (inactive) | > 100 µM (inactive) | > 100 µM (inactive) | > 100 µM (inactive) | > 100 µM (inactive) | > 100 µM (inactive) | > 100 µM (inactive) | > 100 µM (inactive)
Cc1nc(Cl)c(Cl)c(Cl)n1 | 0.409 µM (active) | 0.199 µM (active) | 0.0109 µM (active) | 0.434 µM (active) | 0.357 µM (active) | 0.451 µM (active) | 0.104 µM (active) | 0.405 µM (active) | 0.0596 µM (active) | 0.531 µM (active) | < 0.0142 µM (active) | 0.526 µM (active) | 0.354 µM (active) | 0.146 µM (active) | 1.32 µM (inactive) | 0.755 µM (active) | 0.495 µM (active) | < 0.01 µM (active) | 0.596 µM (active) | 0.375 µM (active)
C=C(CCC/C(C)=C/C=C/[C@H](C)CCCc1ccoc1)C[C@@H]1OC(=O)[C@H](C)[C@@H]1O | 11.2 µM (inactive) | 8.69 µM (inactive) | 11.9 µM (inactive) | 12.6 µM (inactive) | 9.84 µM (inactive) | 8.63 µM (inactive) | 15.1 µM (inactive) | 9.79 µM (inactive) | 13.6 µM (inactive) | 9.06 µM (inactive) | 15.3 µM (inactive) | 8.69 µM (inactive) | 9.71 µM (inactive) | 7.64 µM (inactive) | 11 µM (inactive) | 11.9 µM (inactive) | 6.67 µM (inactive) | 11.8 µM (inactive) | 6.97 µM (inactive) | 7.98 µM (inactive)
NC(Cc1ccc2oc3cc(=O)c4ccccc4c-3nc2c1)C(=O)O (stereo not given) | 50.2 µM (inactive) | 14.4 µM (inactive) | 40.7 µM (inactive) | 6.97 µM (inactive) | > 83.4 µM (inactive) | 25.9 µM (inactive) | 28.7 µM (inactive) | 39.2 µM (inactive) | 13.4 µM (inactive) | 4.4 µM (inactive) | 41.1 µM (inactive) | 4.31 µM (inactive) | 47.4 µM (inactive) | 19.6 µM (inactive) | 66.7 µM (inactive) | 37.4 µM (inactive) | 77.6 µM (inactive) | 16.6 µM (inactive) | 38.5 µM (inactive) | 11.7 µM (inactive)
CCOC(=O)C1(C(=O)OCC)C=C(c2ccccc2)N(C2OC(COC(C)=O)C(OC(C)=O)C(OC(C)=O)C2OC(C)=O)C1=S (stereo not given) | > 100 µM (inactive) | 72.3 µM (inactive) | 33.9 µM (inactive) | > 100 µM (inactive) | > 100 µM (inactive) | > 100 µM (inactive) | > 100 µM (inactive) | 45.6 µM (inactive) | > 100 µM (inactive) | 54 µM (inactive) | 42.4 µM (inactive) | > 100 µM (inactive) | 64.1 µM (inactive) | > 100 µM (inactive) | > 100 µM (inactive) | > 100 µM (inactive) | > 100 µM (inactive) | > 100 µM (inactive) | > 100 µM (inactive) | 57.7 µM (inactive)
CCCCCC(O)(CCCCC)CCCCCCCCC1=C(O)C(=O)c2ccccc2C1=O | 6.32 µM (inactive) | 14.7 µM (inactive) | 6.12 µM (inactive) | 20.7 µM (inactive) | 10.7 µM (inactive) | 11.6 µM (inactive) | 14.1 µM (inactive) | 5.62 µM (inactive) | 4.97 µM (inactive) | 8.53 µM (inactive) | 3.33 µM (inactive) | 8.15 µM (inactive) | 4.4 µM (inactive) | 14.3 µM (inactive) | 20.5 µM (inactive) | 7.19 µM (inactive) | 12.9 µM (inactive) | 3.44 µM (inactive) | 26.4 µM (inactive) | 8.17 µM (inactive)
COc1ccc(Cn2c3c(cc(OS(=O)(=O)C(F)(F)F)c2=O)Cc2ccccc2-3)cc1 | 4.89 µM (inactive) | 24.9 µM (inactive) | 6.27 µM (inactive) | 9.95 µM (inactive) | 20.4 µM (inactive) | 21.9 µM (inactive) | > 50 µM (inactive) | 26.4 µM (inactive) | 10 µM (inactive) | 19.3 µM (inactive) | 12 µM (inactive) | 19.7 µM (inactive) | 2.29 µM (inactive) | 9.53 µM (inactive) | 20.3 µM (inactive) | 13.3 µM (inactive) | 29.9 µM (inactive) | 4.36 µM (inactive) | 32.3 µM (inactive) | 10.5 µM (inactive)
Clc1nncc2sc(-c3ccccc3)nc12 | 85.9 µM (inactive) | 13.9 µM (inactive) | 29 µM (inactive) | 29.2 µM (inactive) | 4.12 µM (inactive) | 17.8 µM (inactive) | 20.3 µM (inactive) | 28.9 µM (inactive) | 14.7 µM (inactive) | 17.4 µM (inactive) | 28.8 µM (inactive) | 17.5 µM (inactive) | 23.2 µM (inactive) | 6.41 µM (inactive) | 83.2 µM (inactive) | 20.1 µM (inactive) | 16.6 µM (inactive) | 9.82 µM (inactive) | 28.5 µM (inactive) | 16.4 µM (inactive)
CC1=C(C(=O)NNC(=O)C[N+](C)(C)C)CC(C(=O)NNC(=O)C[N+](C)(C)C)=C(C)N1 | > 100 µM (inactive) | > 100 µM (inactive) | 21.8 µM (inactive) | > 100 µM (inactive) | > 100 µM (inactive) | > 100 µM (inactive) | > 100 µM (inactive) | > 100 µM (inactive) | > 100 µM (inactive) | > 100 µM (inactive) | > 100 µM (inactive) | > 100 µM (inactive) | > 100 µM (inactive) | > 100 µM (inactive) | > 100 µM (inactive) | > 100 µM (inactive) | > 100 µM (inactive) | 35.6 µM (inactive) | 63.2 µM (inactive) | > 100 µM (inactive)
Cn1c(=O)c2nc(SCc3ccccn3)[nH]c2n(C)c1=S | 67.5 µM (inactive) | > 100 µM (inactive) | > 100 µM (inactive) | > 100 µM (inactive) | 74 µM (inactive) | 44 µM (inactive) | > 100 µM (inactive) | > 100 µM (inactive) | > 100 µM (inactive) | > 100 µM (inactive) | > 100 µM (inactive) | > 100 µM (inactive) | 90.4 µM (inactive) | > 100 µM (inactive) | > 100 µM (inactive) | 56 µM (inactive) | 32.1 µM (inactive) | > 100 µM (inactive) | 66.8 µM (inactive) | 34 µM (inactive)
CN1CCN(CC(=O)N2c3ccccc3Sc3cc4ccccc4cc32)CC1 | 13.3 µM (inactive) | 15.1 µM (inactive) | 26 µM (inactive) | 13.9 µM (inactive) | 11.8 µM (inactive) | 18.7 µM (inactive) | 4.31 µM (inactive) | 17 µM (inactive) | 15.5 µM (inactive) | 11.4 µM (inactive) | 12.2 µM (inactive) | 19.7 µM (inactive) | 16.1 µM (inactive) | 12.9 µM (inactive) | 14.8 µM (inactive) | 17.5 µM (inactive) | 12.9 µM (inactive) | 13.9 µM (inactive) | 19.7 µM (inactive) | 17.1 µM (inactive)
COc1cc2c(cc1OC)C13CCN4CC5CCOC6CC(=O)N2C1C6C5CC43 (stereo not given) | > 100 µM (inactive) | > 100 µM (inactive) | 54.5 µM (inactive) | > 100 µM (inactive) | > 100 µM (inactive) | > 100 µM (inactive) | > 100 µM (inactive) | > 100 µM (inactive) | > 100 µM (inactive) | > 100 µM (inactive) | 1.81 µM (inactive) | > 100 µM (inactive) | > 100 µM (inactive) | > 100 µM (inactive) | > 100 µM (inactive) | > 100 µM (inactive) | > 100 µM (inactive) | 2.65 µM (inactive) | > 100 µM (inactive) | > 100 µM (inactive)
CC(=O)CC(C)(C)NC(=O)[C@@]1(O)CC[C@H]2[C@@H]3CCC4=CC(=O)CC[C@@H]4[C@H]3CC[C@@]21C | > 100 µM (inactive) | > 100 µM (inactive) | > 100 µM (inactive) | > 100 µM (inactive) | > 100 µM (inactive) | > 100 µM (inactive) | > 100 µM (inactive) | > 100 µM (inactive) | > 100 µM (inactive) | > 100 µM (inactive) | 56.4 µM (inactive) | > 100 µM (inactive) | > 100 µM (inactive) | > 100 µM (inactive) | > 100 µM (inactive) | > 100 µM (inactive) | > 100 µM (inactive) | > 100 µM (inactive) | 63.1 µM (inactive) | > 100 µM (inactive)
O=NN(Cc1ccc(Cl)cc1)C(C(=O)O)c1ccccc1 (stereo not given) | > 100 µM (inactive) | > 100 µM (inactive) | > 100 µM (inactive) | > 100 µM (inactive) | > 100 µM (inactive) | > 100 µM (inactive) | > 100 µM (inactive) | > 100 µM (inactive) | > 100 µM (inactive) | > 100 µM (inactive) | > 100 µM (inactive) | > 100 µM (inactive) | > 100 µM (inactive) | > 100 µM (inactive) | > 100 µM (inactive) | > 100 µM (inactive) | > 100 µM (inactive) | > 100 µM (inactive) | > 100 µM (inactive) | > 100 µM (inactive)
